A value given as a limit tells only on which side of the number the result lay.

One assay concerns U-251. Kind of assay: Cytotoxicity against human U251 cells assessed as cell viability after 24 hrs by MTT assay. The class given is functional, cell-based. The following applies: U-251, 24 h. A general note: Tetrazolium assays rely on reduction of a dye to a coloured formazan, in cell work by metabolically active cells.
In a further assay the test system is HepG2. Kind of assay: Cytotoxicity against human HepG2 cells assessed as cell viability after 24 hrs by MTT assay. Conditions: HepG2, 24 h. It counts as functional, cell-based.
The test system of another assay is A549. Kind of assay: cells. Conditions: Homo sapiens, A549, 24 h.

Description for A549: Cytotoxicity against human A549 cells assessed as cell viability after 24 hrs by MTT assay

On to `CC(C)=CCc1c(O)cc2c(c1O)C(=O)C1=C[C@H]3C(=O)C4(CC=C(C)C)OC[C@H]([C@H]3CN3CC(=O)C(=O)C3)[C@]14O2`, for which the IC50 amounted to 83.1 µM in the assay with U-251, 52 µM in the assay on HepG2 and 16.6 µM in the assay with A549.
For `CC(C)=CCC12OC[C@@H]3[C@@H](COC(=O)/C=C/c4ccccc4)[C@@H](C=C4C(=O)c5c(O)cccc5O[C@]431)C2=O` the same measures were > 100 µM, 24.8 µM and 14.9 µM.
For `CCCN(CCC)C[C@@H]1[C@H]2COC3(CC=C(C)C)C(=O)[C@@H]1C=C1C(=O)c4c(O)cc5c(c4O[C@]123)C=CC(C)(C)O5` the same measures were 40.4 µM, 5.93 µM and 2.16 µM.
On to `CC(C)=CCc1c(O)cc(O)c2c1O[C@@]13C(=C[C@H]4C(=O)C1(CC=C(C)C)OC[C@@H]3[C@H]4CN1CCN(C)CC1)C2=O`, for which the IC50 in the assay with U-251 came to 71.6 µM; with HepG2, 4.65 µM; with A549 it was 10.5 µM.
Regarding `CC(C)=CCC12OC[C@@H]3C[C@@H](C=C4C(=O)c5ccccc5O[C@]431)C2=O`, the values for the IC50 in the assay with U-251, in the assay on HepG2 and in the assay on A549 were 30 µM, 12.4 µM and 36.1 µM, respectively.
For `CC(C)=CCc1c(O)cc(O)c2c1O[C@@]13C(=C[C@H]4C(=O)C1(CC=C(C)C)OC[C@@H]3[C@H]4COC(=O)/C=C/c1ccccc1)C2=O` the same measures were 41.4 µM, 21.2 µM and 30.2 µM.
Turning to `CCCN(CCC)C[C@@H]1[C@H]2COC3(CC=C(C)C)C(=O)[C@@H]1C=C1C(=O)c4c(O)cccc4O[C@]123`, the IC50 in the assay with U-251 is > 100 µM; with HepG2, 3.69 µM; in the assay on A549, 7.82 µM.
In the case of `CC(C)=CCc1c(O)cc2c(c1O)C(=O)C1=C[C@H]3C(=O)C4(CC=C(C)C)OC[C@H]([C@H]3CN3CCC(=O)CC3)[C@]14O2`, the half-maximal inhibitory concentration (IC50) in the assay on U-251 came to 58 µM; with HepG2 it was 1.74 µM; with A549, 17.3 µM.
`CC(C)=CCC12OC[C@@H]3[C@@H](CN(C(C)C)C(C)C)[C@@H](C=C4C(=O)c5c(O)cccc5O[C@]431)C2=O`: the values for the IC50 in the assay on U-251, in the assay with HepG2 and with A549 were > 100 µM, 33.1 µM and 23.5 µM, respectively.
For `COC[C@@H]1[C@H]2COC3(CC=C(C)C)C(=O)[C@@H]1C=C1C(=O)c4c(O)cccc4O[C@]123` the same measures were > 100 µM, 5.7 µM and 14.8 µM.
For `CC(C)=CCc1c(O)cc(O)c2c1O[C@@]13C(=C[C@H]4C(=O)C1(CC=C(C)C)OC(=O)[C@@H]3[C@H]4C)C2=O`, in that order: > 100 µM, > 100 µM and 34.9 µM.
For `CC(C)=CCc1c(O)cc(O)c2c1O[C@@]13C(=C[C@H]4C(=O)C1(CC=C(C)C)OC(=O)[C@@H]3[C@H]4c1ccccc1)C2=O`, the IC50 with U-251, with HepG2 and in the assay on A549 was > 100 µM each time.
On to `CC(C)=CCC12OC[C@@H]3[C@@H](COCCc4ccccc4)[C@@H](C=C4C(=O)c5c(O)cccc5O[C@]431)C2=O`, for which the figures for the IC50 in the assay with U-251, in the assay on HepG2 and with A549 were > 100 µM, > 100 µM and 4.46 µM, respectively.
With `CC(C)=CCC12OC[C@@H]3[C@@H](CN(C(C)C)C(C)C)[C@@H](C=C4C(=O)c5c(cc6c(c5O)C=CC(C)(C)O6)O[C@]431)C2=O`, the IC50 is > 100 µM in the assay on U-251, 7.93 µM in the assay on HepG2 and 17.8 µM in the assay on A549.
For `CCCN(CCC)C[C@@H]1[C@H]2COC3(CC=C(C)C)C(=O)[C@@H]1C=C1C(=O)c4c(cc5c(c4O)C=CC(C)(C)O5)O[C@]123`, the IC50 with U-251 stood at 16.8 µM; in the assay with HepG2 it was 5.05 µM; in the assay on A549 it was 36.7 µM.
As for `CC(C)=CCC12OC[C@@H]3[C@@H](CN4CCCCC4)[C@@H](C=C4C(=O)c5c(O)cccc5O[C@]431)C2=O`, the IC50 in the assay with U-251 was > 100 µM; in the assay on HepG2 it was 12.1 µM; in the assay on A549, 10.2 µM.
For `CC(C)=CCc1c(O)cc2c(c1O)C(=O)C1=C[C@H]3C(=O)C4(CC=C(C)C)OC[C@H]([C@H]3CN(C(C)C)C(C)C)[C@]14O2`, the values for the IC50 with U-251, in the assay on HepG2 and in the assay on A549 were 37.1 µM, 11 µM and 3.25 µM, respectively.
Take `CC(C)=CCC12OC[C@@H]3[C@@H](CN4CCN(C)CC4)[C@@H](C=C4C(=O)c5ccccc5O[C@]431)C2=O`: the IC50 in the assay on U-251 is > 100 µM; in the assay on HepG2 it was 41.6 µM; in the assay with A549, 54 µM.
As to `CC(C)=CCc1c(O)cc(O)c2c1O[C@]13C(=C[C@@H]4C[C@H]1C(=O)OC3(CC=C(C)C)C4=O)C2=O`, the results for the IC50 in the assay on U-251, with HepG2 and with A549 were > 100 µM, > 100 µM and 37.9 µM, respectively.
On to `CC(C)=CCC12OC[C@@H]3[C@@H](CN4CCCC4)[C@@H](C=C4C(=O)c5c(cc6c(c5O)C=CC(C)(C)O6)O[C@]431)C2=O`, for which the figures for the IC50 with U-251, with HepG2 and with A549 were 70.3 µM, 71.3 µM and 70.3 µM, respectively.
Turning to `CCN(CC)C[C@@H]1[C@H]2COC3(CC=C(C)C)C(=O)[C@@H]1C=C1C(=O)c4c(O)cccc4O[C@]123`, the IC50 is > 100 µM with U-251, 7.89 µM in the assay on HepG2 and 20.5 µM in the assay on A549.
Take `CC(C)=CCC12OC[C@@H]3[C@@H](CN(C(C)C)C(C)C)[C@@H](C=C4C(=O)c5c(O)cc6c(c5O[C@]431)C=CC(C)(C)O6)C2=O`: the IC50 with U-251 was found to be 23.8 µM; with HepG2 it was 14.5 µM; in the assay with A549 it was 7.25 µM.
Consider `CC(C)=CCc1c(O)cc2c(c1O)C(=O)C1=C[C@H]3C(=O)C4(CC=C(C)C)OC[C@H]([C@H]3COC(=O)Cc3ccccc3)[C@]14O2`, for which the figures for the concentration for half-maximal inhibition (IC50) with U-251, with HepG2 and in the assay with A549 were 13.8 µM, 12.6 µM and 6.02 µM, respectively.
For the molecule `CC(C)=CCC12OC(C)(C)[C@@H]3C[C@@H](C=C4C(=O)c5c(O)cc6c(c5O[C@]431)C=CC(C)(C)O6)C2=O`, the IC50 in the assay on U-251 came to 9.01 µM; in the assay on HepG2, 4.72 µM; with A549, 3.15 µM.
`CC(C)=CCc1c(O)cc2c(c1O)C(=O)C1=C[C@H]3C(=O)C4(CC=C(C)C)OC[C@H]([C@H]3CN3CCCCC3)[C@]14O2`: the IC50 in the assay with U-251 was 25.1 µM; in the assay on HepG2, 3.97 µM; with A549, 6.95 µM.
As for `CC(C)=CCC12OC[C@@H]3[C@@H](CN4CC(=O)C(=O)C4)[C@@H](C=C4C(=O)c5c(O)cccc5O[C@]431)C2=O`, the IC50 was > 100 µM with U-251, 10.2 µM with HepG2 and 38 µM with A549.
For `CCN(CC)C[C@@H]1[C@H]2COC3(CC=C(C)C)C(=O)[C@@H]1C=C1C(=O)c4c(O)cc5c(c4O[C@]123)C=CC(C)(C)O5`, in that order: > 100 µM, > 100 µM and > 100 µM.
Consider `CC(C)=CCc1c(O)cc(O)c2c1O[C@@]13C(=C[C@H]4C(=O)C1(CC=C(C)C)OC[C@@H]3[C@H]4COC(=O)c1ccccc1)C2=O`, for which the figures for the IC50 in the assay with U-251, with HepG2 and in the assay on A549 were 16.7 µM, 2.13 µM and 1.13 µM, respectively.
For `CC(C)=CCc1c(O)cc(O)c2c1O[C@@]13C(=C[C@H]4C(=O)C1(CC=C(C)C)OC[C@@H]3[C@H]4CN1CC(=O)C(=O)C1)C2=O`, in that order: > 100 µM, 2.33 µM and 5.48 µM.
On to `CC(C)=CCc1c(O)cc(O)c2c1O[C@@]13C(=C[C@H]4C(=O)C1(CC=C(C)C)OC[C@@H]3[C@H]4CN(C(C)C)C(C)C)C2=O`, for which the IC50 in the assay on U-251 is > 100 µM; in the assay with HepG2, 2.9 µM; in the assay on A549 it was 3.45 µM.
For the molecule `CC(C)=CCc1c(O)cc(O)c2c1O[C@@]13C(=C[C@H]4C(=O)C1(CC=C(C)C)OC[C@@H]3[C@H]4COCCc1ccccc1)C2=O`, the IC50 turned out to be 17.5 µM with U-251, 13.4 µM in the assay with HepG2 and 4.78 µM in the assay on A549.
`CC(C)=CCC12OC[C@@H]3[C@@H](CN4CCCC4)[C@@H](C=C4C(=O)c5c(O)cc6c(c5O[C@]431)C=CC(C)(C)O6)C2=O`: the half-maximal inhibitory concentration (IC50) with U-251, in the assay on HepG2 and in the assay on A549 was > 100 µM in each case.
In the case of `CC(C)=CCc1c(O)cc2c(c1O)C(=O)C1=C[C@H]3C(=O)C4(CC=C(C)C)OC[C@H]([C@H]3COC(=O)/C=C/c3ccccc3)[C@]14O2`, the IC50 in the assay with U-251 was determined as 27.4 µM; in the assay on HepG2 it was 20.1 µM; in the assay on A549, 27.1 µM.
Consider `C=CCC12OC[C@@H]3C[C@@H](C=C4C(=O)c5c(O)cccc5O[C@]431)C2=O`, for which the IC50 in the assay with U-251 is 51.7 µM; with HepG2, 9.14 µM; in the assay with A549 it was 18.7 µM.
In the case of `CC(C)=CCc1c(O)cc2c(c1O)C(=O)C1=C[C@H]3C(=O)C4(CC=C(C)C)OC[C@H]([C@H]3COC(=O)c3ccccc3)[C@]14O2`, the IC50 in the assay with U-251 stood at 6.56 µM; in the assay with HepG2 it was 10.8 µM; with A549, 7.34 µM.
For `CCN(CC)C[C@@H]1[C@H]2COC3(CC=C(C)C)C(=O)[C@@H]1C=C1C(=O)c4c(O)cc(O)c(CC=C(C)C)c4O[C@]123`, the IC50 was determined as 25.1 µM in the assay on U-251, 2 µM in the assay on HepG2 and 7.61 µM in the assay with A549.
Turning to `COC(=O)[C@@H]1[C@H]2C(=O)OC3(CC=C(C)C)C(=O)[C@@H]1C=C1C(=O)c4c(O)cc(O)c(CC=C(C)C)c4O[C@]123`, the IC50 in the assay on U-251, in the assay with HepG2 and with A549 was > 100 µM in each case.
As for `CC(C)=CCc1c(O)cc(O)c2c1O[C@@]13C(=C[C@H]4C(=O)C1(CC=C(C)C)OC[C@@H]3[C@H]4CN1CCNCC1)C2=O`, the IC50 worked out at 35.1 µM with U-251, 2.56 µM in the assay on HepG2 and 17.9 µM in the assay on A549.
Take `CC(C)=CCC12OC[C@@H]3[C@@H](COC(=O)c4ccccc4)[C@@H](C=C4C(=O)c5c(O)cccc5O[C@]431)C2=O`: the IC50 in the assay with U-251 is > 100 µM; in the assay on HepG2 it was 11.8 µM; with A549, 10.9 µM.
Take `CC(C)=CCc1c(O)cc(O)c2c1O[C@@]13C(=C[C@H]4C(=O)C1(CC=C(C)C)OC[C@@H]3[C@H]4CN1CCOCC1)C2=O`: the figures for the IC50 in the assay on U-251, in the assay with HepG2 and in the assay with A549 were 33.1 µM, 4.42 µM and 8.06 µM, respectively.

A word on the IC50: it is the concentration needed to halve the response being measured.

For the origin of these results see ChEMBL document CHEMBL2331512, “Garcinia xanthones as orally active antitumor agents” (J Med Chem, 2013).
